From patent publication US20170275275A1, “BENZENESULFONAMIDES USEFUL AS SODIUM CHANNEL INHIBITORS” (PFIZER INC., priority 2014, published 2017)
Structures can show the parent of a compound that is named as a salt.

Target: T1, Nav1.7 (or SCN9A) channel (Homo sapiens, UniProt Q15858)
T1 construct: expressed in transfected cells
Assay: Nav1.7 (hSCN9A) channel block, PatchXpress (PX) whole-cell electrophysiology in stably transfected HEK cells
Assay type: cell-based
Conditions: for IC50: estimated IC50 from single point electrophysiology data, PatchXpress platform, HEK cells expressing hSCN9A, clamped at V1/2 of inactivation, read-out: Nav1.7 EIC50
Experimental: The ability of the compounds of formula (I) to block the Nav1.7 (or SCN9A) channel was measured using the assay described below.
Human Embryonic Kidney (HEK) cells were transfected with an hSCN9A construct using lipofectamine reagent (Invitrogen), using standard techniques. Cells stably expressing the hSCN9A constructs were identified by their resistance to G-418 (400 μg/ml). Clones were screened for expression using the whole-cell voltage-clamp technique.
HEK cells stably transfected with hSCN9A were maintained in DMEM medium supplemented with 10% heat-inactivated fetal bovine serum and 400 μg/ml G-418 in an incubator at 37° C. with a humidified atmosphere of 10% CO2. For HTS, cells were harvested from flasks by trypsinization and replated in an appropriate multi-well plate (typically 96 or 384 wells/plate) such that confluence would be achieved within 24 hours of plating. Cells were typically used for electrophysiological experiments within 24 to 72 hours after plating.
For conventional whole-cell voltage clamp experiments cells were removed from the culture flask by brief trypsinization and re-plated at low density onto glass cover slips. Cover slips containing HEK cells expressing hSCN9A were placed in a bath on the stage of an inverted microscope and perfused (approximately 1 ml/minutes) with extracellular solution of the following composition: 138 mM NaCl, 2 mM CaCl2, 5.4 mM KCl, 1 mM MgCl2, 10 mM glucose, and 10 mM HEPES, pH 7.4, with NaOH. […] The osmolarity of the extracellular and intracellular solutions was 300 mOsm/kg and 295 mOsm/kg, respectively. All recordings were made at room temperature (22-24° C.) using AXOPATCH 200B amplifiers and PCLAMP software (Axon Instruments, Burlingame, Calif.). hSCN9A currents in HEK cells were measured using the whole-cell configuration of the patch-clamp technique (Hamill et al., 1981). Uncompensated series resistance was typically 2 to 5 mega ohms and >85% series resistance compensation was routinely achieved. […] Current records were acquired at 20 to 50 KHz and filtered at 5 to 10 KHz.
HEK cells stably transfected with hSCN9A were viewed under Hoffman contrast optics and placed in front of an array of flow pipes emitting either control or compound-containing extracellular solutions.
The voltage-dependence of inactivation was determined by applying a series of depolarizing prepulses (8 sec long in 10 mV increments) from a negative holding potential. The voltage was then immediately stepped to 0 mV to assess the magnitude of the sodium current. Currents elicited at 0 mV were plotted as a function of prepulse potential to allow estimation of the voltage at which 50% of the channels were inactivated (midpoint of inactivation or V1/2). Compounds were tested for their ability to inhibit hSCN9A sodium channels by activating the channel with a 20 msec voltage step […] to 0 mV following an 8 second conditioning prepulse to the empirically determined V1/2. Compound effect (% inhibition) was determined by difference in current amplitude before and after application of test compounds. For ease of comparison, “estimated IC-50” (EIC50) values were calculated from single point electrophysiology data by the following equation, (tested concentration, nM)×(100-% inhibition/% inhibition). Inhibition values <20% and >80% were excluded from the calculation.
Electrophysiological assays were conducted with PatchXpress 7000 hardware and associated software (Molecular Devices Corp). All assay buffers and solutions were identical to those used in conventional whole-cell voltage clamp experiments described above. hSCN9A cells were grown as above to 50%-80% confluency and harvested by trypsinization. Trypsinized cells were washed and resuspended in extracellular buffer at a concentration of 1×10^6 cells/ml. The onboard liquid handling facility of the PatchXpress was used for dispensing cells and application of test compounds.

T1 sequence (Q15858 whole entry): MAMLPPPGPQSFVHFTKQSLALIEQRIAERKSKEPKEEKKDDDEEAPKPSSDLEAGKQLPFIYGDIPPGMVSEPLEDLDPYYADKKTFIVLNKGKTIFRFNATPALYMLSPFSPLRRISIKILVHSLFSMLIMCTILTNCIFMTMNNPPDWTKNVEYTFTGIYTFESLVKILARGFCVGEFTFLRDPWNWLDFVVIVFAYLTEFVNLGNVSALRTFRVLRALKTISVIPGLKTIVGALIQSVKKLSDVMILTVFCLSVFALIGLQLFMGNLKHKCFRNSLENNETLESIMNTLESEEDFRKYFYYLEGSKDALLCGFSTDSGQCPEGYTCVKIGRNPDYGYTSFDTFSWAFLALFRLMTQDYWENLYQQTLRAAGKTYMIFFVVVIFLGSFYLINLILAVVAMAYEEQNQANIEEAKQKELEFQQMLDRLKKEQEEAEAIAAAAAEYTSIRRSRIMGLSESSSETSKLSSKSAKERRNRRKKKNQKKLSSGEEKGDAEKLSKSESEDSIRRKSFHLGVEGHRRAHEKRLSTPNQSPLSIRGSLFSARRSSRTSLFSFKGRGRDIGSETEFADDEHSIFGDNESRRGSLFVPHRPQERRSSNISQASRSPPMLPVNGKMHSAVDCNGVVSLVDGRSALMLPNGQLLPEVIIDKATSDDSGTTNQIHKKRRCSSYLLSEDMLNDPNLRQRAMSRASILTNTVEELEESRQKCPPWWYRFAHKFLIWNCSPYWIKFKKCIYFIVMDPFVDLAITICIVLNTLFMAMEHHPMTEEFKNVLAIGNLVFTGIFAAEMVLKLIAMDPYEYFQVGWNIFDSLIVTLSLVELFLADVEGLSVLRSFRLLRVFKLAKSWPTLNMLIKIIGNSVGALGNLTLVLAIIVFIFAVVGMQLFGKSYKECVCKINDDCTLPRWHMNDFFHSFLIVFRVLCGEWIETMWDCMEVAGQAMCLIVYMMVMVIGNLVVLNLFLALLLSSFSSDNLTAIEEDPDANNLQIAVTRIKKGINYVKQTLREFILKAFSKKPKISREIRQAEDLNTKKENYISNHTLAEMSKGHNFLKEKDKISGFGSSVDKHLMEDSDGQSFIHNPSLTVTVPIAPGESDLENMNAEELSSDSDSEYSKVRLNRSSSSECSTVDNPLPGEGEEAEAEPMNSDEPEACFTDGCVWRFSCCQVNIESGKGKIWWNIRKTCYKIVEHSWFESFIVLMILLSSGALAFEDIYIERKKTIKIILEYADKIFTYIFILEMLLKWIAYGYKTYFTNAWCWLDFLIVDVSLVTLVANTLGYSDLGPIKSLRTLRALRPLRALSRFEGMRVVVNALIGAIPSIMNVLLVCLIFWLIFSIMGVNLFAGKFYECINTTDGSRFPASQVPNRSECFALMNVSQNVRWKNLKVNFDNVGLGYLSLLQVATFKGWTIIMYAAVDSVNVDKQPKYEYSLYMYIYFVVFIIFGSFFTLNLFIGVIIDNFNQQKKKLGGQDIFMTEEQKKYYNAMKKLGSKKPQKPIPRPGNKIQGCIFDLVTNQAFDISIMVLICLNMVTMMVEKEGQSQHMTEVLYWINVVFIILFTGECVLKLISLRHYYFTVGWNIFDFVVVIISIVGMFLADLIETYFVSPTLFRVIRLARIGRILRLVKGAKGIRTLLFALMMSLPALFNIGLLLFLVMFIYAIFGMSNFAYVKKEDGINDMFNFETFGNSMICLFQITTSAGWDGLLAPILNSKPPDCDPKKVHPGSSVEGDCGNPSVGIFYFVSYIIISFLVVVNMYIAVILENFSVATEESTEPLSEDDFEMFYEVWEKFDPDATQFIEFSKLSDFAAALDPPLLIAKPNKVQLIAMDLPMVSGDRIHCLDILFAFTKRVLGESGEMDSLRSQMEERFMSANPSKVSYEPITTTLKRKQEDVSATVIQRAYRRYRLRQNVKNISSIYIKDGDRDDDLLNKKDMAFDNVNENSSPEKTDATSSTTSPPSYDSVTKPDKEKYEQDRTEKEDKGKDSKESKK

| Compound | IC50 [nM] | inhibition at 0.03 µM (HEK293, Nav1.7, PatchXpress, 30 nM, read-out: % inhibition at 30 nM dose) [%] |
| --- | --- | --- |
| CC(=O)N1CCC(CCNCc2cc(-c3cc(-c4cccc(C(F)(F)F)c4)ccc3Oc3ccc(S(=O)(=O)Nc4ncns4)cc3C#N)ccn2)CC1 [Example 1, 4-({3-[2-({[2-(1-Acetylpiperidin-4-yl)ethyl]amino}methyl)pyridin-4-yl]-3′-(trifluoromethyl)biphenyl-4-yl}oxy)-3-cyano-N-1,2,4-thiadiazol-5-ylbenzenesulfonamide] | 5.8 |  |
| O=S(=O)(Nc1cscn1)c1cc(Cl)c(Oc2ccc(-c3cccc(C(F)(F)F)c3)cc2-c2ccnc(CNCCC3CCNCC3)c2)cc1F [Example 2, 5-Chloro-2-fluoro-4-{[3-(2-{[(2-piperidin-4-ylethyl)amino]methyl}pyridin-4-yl)-3′-(trifluoromethyl)biphenyl-4-yl]oxy}-N-1,3-thiazol-4-ylbenzenesulfonamide] | > 30 | 10.7 |
| N#Cc1cc(S(=O)(=O)Nc2ncns2)ccc1Oc1ccc(-c2ccccc2)cc1-c1cccc(C(=O)NCCN2CCNCC2)c1 [Example 3, 6′-{2-cyano-4-[(1,2,4-thiadiazol-5-ylamino)sulfonyl]phenoxy}-N-(2-piperazin-1-ylethyl)-1,1′:3′,1″-terphenyl-3-carboxamide] | 1 |  |
| N#Cc1cc(S(=O)(=O)Nc2ncns2)ccc1Oc1ccc(-c2ccccc2)cc1-c1cccc(CNCCC2CCNCC2)c1 [Example 5, 3-Cyano-4-[(3″-{[(2-piperidin-4-ylethyl)amino]methyl}-1,1′:3′,1″-terphenyl-4′-yl)oxy]-N-1,2,4-thiadiazol-5-ylbenzenesulfonamide sodium salt] | 1.5 |  |
| COCCOCCOCCOC(=O)NCc1cc(-c2cc(-c3cccc(C(F)(F)F)c3)ccc2Oc2ccc(S(=O)(=O)Nc3ncns3)cc2C#N)ccn1 [Example 8, 2-[2-(2-methoxyethoxy)ethoxy]ethyl [(4-{4-[2-cyano-4-(1,2,4-thiadiazol-5-ylsulfamoyl)phenoxy]-3′-(trifluoromethyl)biphenyl-3-yl}pyridin-2-yl)methyl]carbamate triethylammonium salt] | 3.4 |  |
| COCCOCCOCCOCCNC(=O)NCc1cc(-c2cc(-c3cccc(C(F)(F)F)c3)ccc2Oc2ccc(S(=O)(=O)Nc3ncns3)cc2C#N)ccn1 [Example 9, 3-cyano-4-((3-(2-(3-oxo-7,10,13,16-tetraoxa-2,4-diazaheptadecyl)pyridin-4-yl)-3′-(trifluoromethyl)-[1,1′-biphenyl]-4-yl)oxy)-N-(1,2,4-thiadiazol-5-yl)benzenesulfonamide triethylammonium salt] | 10.9 |  |
| COCCOCCOCCOCCNCCOCc1cc(-c2cc(-c3cccc(C(F)(F)F)c3)ccc2Oc2ccc(S(=O)(=O)Nc3ncns3)cc2C#N)ccn1 [Example 10, 4-((3-(2-(2,8,11,14,17-pentaoxa-5-azaoctadecyl)pyridin-4-yl)-3′-(trifluoromethyl)-[1,1′-biphenyl]-4-yl)oxy)-3-cyano-N-(1,2,4-thiadiazol-5-yl)benzenesulfonamide] | 4.7 |  |
| COCCOCCOCCOCCNC(=O)OCc1cc(-c2cc(-c3cccc(C(F)(F)F)c3)ccc2Oc2ccc(S(=O)(=O)Nc3ncns3)cc2C#N)ccn1 [Example 11, (4-(4-(4-(N-(1,2,4-thiadiazol-5-yl)sulfamoyl)-2-cyanophenoxy)-3′-(trifluoromethyl)-[1,1′-biphenyl]-3-yl)pyridin-2-yl)methyl (2,5,8,11-tetraoxatridecan-13-yl)carbamate] | 10.4 |  |
| COCCOCCOCCOCCOCc1cc(-c2cc(-c3cccc(C(F)(F)F)c3)ccc2Oc2ccc(S(=O)(=O)Nc3ncns3)cc2C#N)ccn1 [Example 13, 3-cyano-4-({3-[2-(2,5,8,11,14-pentaoxapentadec-1-yl)pyridin-4-yl]-3′-(trifluoromethyl)biphenyl-4-yl}oxy)-N-(1,2,4-thiadiazol-5-yl)benzenesulfonamide] | 13 |  |
| COCCOCCOCCOCCNC(=O)COCc1cc(-c2cc(-c3cccc(C(F)(F)F)c3)ccc2Oc2ccc(S(=O)(=O)Nc3ncns3)cc2C#N)ccn1 [Example 14, 2-((4-(4-(4-(N-(1,2,4-thiadiazol-5-yl)sulfamoyl)-2-cyanophenoxy)-3′-(trifluoromethyl)-[1,1′-biphenyl]-3-yl)pyridin-2-yl)methoxy)-N-(2,5,8,11-tetraoxatridecan-13-yl)acetamide] | 5 |  |
| CC(=O)N1CCC(CCNCc2cccc(-c3cc(-c4ccccc4)ccc3Oc3ccc(S(=O)(=O)Nc4ncns4)cc3C#N)c2)CC1 [Example 16, 4-{[3″-({[2-(1-Acetylpiperidin-4-yl)ethyl]amino}methyl)-1,1′:3′,1″-terphenyl-4′-yl]oxy}-3-cyano-N-1,2,4-thiadiazol-5-ylbenzenesulfonamide] | 0.9 |  |
| COCCOCCOCCOCCOC1CN(Cc2cc(-c3cc(-c4cccc(C(F)(F)F)c4)ccc3Oc3ccc(S(=O)(=O)Nc4ncns4)cc3C#N)ccn2)C1 [Example 20, hemi trifluoroacetate salt] | 1 |  |
| COCCOCCOCCOCCO[C@H]1CCN(Cc2cc(-c3cc(-c4cccc(C(F)(F)F)c4)ccc3Oc3ccc(S(=O)(=O)Nc4ncns4)cc3C#N)ccn2)C1 [Example 22, (S)-4-((3-(2-((3-((2,5,8,11-tetraoxatridecan-13-yl)oxy)pyrrolidin-1-yl)methyl)pyridin-4-yl)-3′-(trifluoromethyl)-[1,1′-biphenyl]-4-yl)oxy)-3-cyano-N-(1,2,4-thiadiazol-5-yl)benzenesulfonamide hemi-trifluoroacetate salt] | 2.6 |  |
| COCCOCCOCCOCCOC1CCN(Cc2cc(-c3cc(-c4cccc(C(F)(F)F)c4)ccc3Oc3ccc(S(=O)(=O)Nc4ncns4)cc3C#N)ccn2)CC1 [Example 23, 4-((3-(2-((4-((2,5,8,11-tetraoxatridecan-13-yl)oxy)piperidin-1-yl)methyl)pyridin-4-yl)-3′-(trifluoromethyl)-[1,1′-biphenyl]-4-yl)oxy)-3-cyano-N-(1,2,4-thiadiazol-5-yl)benzenesulfonamide trifluoroacetate salt] | 5 |  |
| COCCOCCOCCOCCOCCOCCOCCOCCOCCOCCOCCOCCC(=O)N1CCN(c2cc(-c3cc(-c4ccc(C(F)(F)F)cc4)ccc3Oc3ccc(S(=O)(=O)Nc4ncns4)cc3C#N)ccn2)CC1 [Example 24, 4-((3-(2-(4-(2,5,8,11,14,17,20,23,26,29,32,35-dodecaoxaoctatriacontan-38-oyl)piperazin-1-yl)pyridin-4-yl)-4′-(trifluoromethyl)-[1,1′-biphenyl]-4-yl)oxy)-3-cyano-N-(1,2,4-thiadiazol-5-yl)benzenesulfonamide] | 13.4 |  |
| COCCOCCOCCOCCOCCOCCOCCOCCOCCOCCOCCOCCC(=O)NCc1cc(-c2cc(-c3cccc(C(F)(F)F)c3)ccc2Oc2cc(F)c(S(=O)(=O)Nc3nncs3)cc2Cl)ccn1 [Example 27, N-[(4-{4-[2-chloro-5-fluoro-4-(1,3,4-thiadiazol-2-ylsulfamoyl)phenoxy]-3′-(trifluoromethyl)biphenyl-3-yl}pyridin-2-yl)methyl]-2,5,8,11,14,17,20,23,26,29,32,35-dodecaoxaoctatriacontan-38-amide] | 47.2 |  |
| COCCOCCOCCOCCOCCOCCOCCOCCOCCOCCOCCOCCC(=O)NCc1cc(-c2cc(-c3cccc(C(F)(F)F)c3)ccc2Oc2cc(F)c(S(=O)(=O)Nc3cscn3)cc2Cl)ccn1 [Example 28, N-[(4-{4-[2-chloro-5-fluoro-4-(1,3-thiazol-4-ylsulfamoyl)phenoxy]-3′-(trifluoromethyl)biphenyl-3-yl}pyridin-2-yl)methyl]-2,5,8,11,14,17,20,23,26,29,32,35-dodecaoxaoctatriacontan-38-amide] | 241 |  |
